Experimental data published in patent publication EP0028778B1, “Antibacterial compositions comprising a beta-lactam-type compound and a 3-substituted propenoate” (Merck & Co., Inc., priority 1979, dated 1981).

Legend:
rabbits [1] = experiment: Nephrotoxicity of NFT alone or in combination with DMCO, intravenous, rabbits, 48 hours; format: in vivo, New Zealand white rabbits; details: for numbers of rabbits with renal tubular necrosis/numbers of rabbits tested / Renal Tubular Necrosis (degree) / BUN / Creatinine: i.v., 48 hours, rabbits; for Renal Tubular Necrosis (degree): histology; for BUN: mean; for Creatinine: mean serum
Procedure: The compound N-formimidoyl theinamycin (NFT) and the compound Z-2-(2,2-dimethylcyclopropane carboxamido)-2-ocetenoic acid (DMCO) were tested in rabbits to evaluate nephrootoxicity.
Either NFT alone or in combination with DMCO was administered intravenously to rabbits. After 48 hours blood samples were taken for determination of BUN and creatinine concentrations and the rabbits were killed for histologic examination of kidney sections.
The study was initiated with 28 New Zealand white rabbits which ranged in age from 23 to 27 weeks, and in weight from 2.78 to 3.71 kg for males and 2.81 to 3.85 kg for females. All animals were housed in individual stainless steel cages and maintained in climate-controlled rooms with access to food (Purina Rabbit Chow) and tap water ad libitum.
NFT was administered to six groups of 2 male and 2 female rabbits each at a nominal dose of 180 mg/kg. Five of these groups received DMCO in addition to NFT at nominal doses of 90, 30, 10, 3 or 1 mg/kg. All doses were administered via the marginal ear vein at a dosage volume of 1.89 ml/kg. An additional group of 2 male and 2 female rabbits received 0.9% sterile saline and served as controls.
NFT was dissolved in solutions of sodium bicarbonate (NFT alone group) or sterile solutions of DMCO in sodium bicarbonate at five different concentrations; these solutions were prepared immediately prior to use.
The mean BUN and serum creatinine concentrations and the degrees of renal tubular epithelial necrosis are shown below in Table I: […]

rabbits [2] = experiment: as above; format: in vivo, New Zealand white rabbits; details: single large doses, within 48 hours, dose rates comparable to those used with cephaloridine

SMILES: CCCCC/C=C(\NC(=O)C1CC1(C)C)C(=O)O (centres unmarked) [DMCO, Z-2-(2,2-dimethylcyclopropanecarboxamido)-2-octenoic acid]
- numbers of rabbits with renal tubular necrosis/numbers of rabbits tested (rabbits [1]; NFT 180 mg/kg + DMCO 1 mg/kg): 4/4
- Renal Tubular Necrosis (degree) (rabbits [1]; NFT 180 mg/kg + DMCO 1 mg/kg): Marked-Severe
- BUN (rabbits [1]; NFT 180 mg/kg + DMCO 1 mg/kg): 64.7^S mg/100 ml
- Creatinine (rabbits [1]; NFT 180 mg/kg + DMCO 1 mg/kg): 4.2^S mg/100 ml
- numbers of rabbits with renal tubular necrosis/numbers of rabbits tested (rabbits [1]; NFT 180 mg/kg + DMCO 3 mg/kg): 4/4
- Renal Tubular Necrosis (degree) (rabbits [1]; NFT 180 mg/kg + DMCO 3 mg/kg): Marked
- BUN (rabbits [1]; NFT 180 mg/kg + DMCO 3 mg/kg): 65.8^S mg/100 ml
- Creatinine (rabbits [1]; NFT 180 mg/kg + DMCO 3 mg/kg): 4.2^S mg/100 ml
- numbers of rabbits with renal tubular necrosis/numbers of rabbits tested (rabbits [1]; NFT 180 mg/kg + DMCO 10 mg/kg): 4/4
- Renal Tubular Necrosis (degree) (rabbits [1]; NFT 180 mg/kg + DMCO 10 mg/kg): Moderate-Marked
- BUN (rabbits [1]; NFT 180 mg/kg + DMCO 10 mg/kg): 53.1^S mg/100 ml
- Creatinine (rabbits [1]; NFT 180 mg/kg + DMCO 10 mg/kg): 2.9^S mg/100 ml
- numbers of rabbits with renal tubular necrosis/numbers of rabbits tested (rabbits [1]; NFT 180 mg/kg + DMCO 30 mg/kg): 4/4
- Renal Tubular Necrosis (degree) (rabbits [1]; NFT 180 mg/kg + DMCO 30 mg/kg): V. Sl.-Moderate
- BUN (rabbits [1]; NFT 180 mg/kg + DMCO 30 mg/kg): 26.1^NS mg/100 ml
- Creatinine (rabbits [1]; NFT 180 mg/kg + DMCO 30 mg/kg): 1.3^NS mg/100 ml
- numbers of rabbits with renal tubular necrosis/numbers of rabbits tested (rabbits [1]; NFT 180 mg/kg + DMCO 90 mg/kg): 0/4
- Renal Tubular Necrosis (degree) (rabbits [1]; NFT 180 mg/kg + DMCO 90 mg/kg): None
- BUN (rabbits [1]; NFT 180 mg/kg + DMCO 90 mg/kg): 16.6^NS mg/100 ml
- Creatinine (rabbits [1]; NFT 180 mg/kg + DMCO 90 mg/kg): 1.2^NS mg/100 ml
- ability to prevent nephrotoxicity (rabbits [1]; co-administration with the antibiotic, general statement): has been shown to possess this property

SMILES: C[C@@H](O)[C@H]1C(=O)N2C(C(=O)O)=C(SCCN=CN)C[C@H]12 [NFT, N-formimidoyl thienamycin]
- numbers of rabbits with renal tubular necrosis/numbers of rabbits tested (rabbits [1]; NFT 180 mg/kg alone): 4/4
- Renal Tubular Necrosis (degree) (rabbits [1]; NFT 180 mg/kg alone): Marked-Severe
- BUN (rabbits [1]; NFT 180 mg/kg alone): 70.0^S mg/100 ml
- Creatinine (rabbits [1]; NFT 180 mg/kg alone): 4.2^S mg/100 ml
- nephrotoxic potential in the rabbit laboratory model (rabbits [2]): nephrotoxic
